Reference: ChEMBL document CHEMBL1144853, “Arginine binding motifs: design and synthesis of galactose-derived arginine tweezers as galectin-3 inhibitors” (J Med Chem, 2008)

Target: Galectin-3 (Homo sapiens, UniProt P17931)
Experiment: Binding affinity to human galectin 3 by Fluorescence polarization assay

Galectin-3, sequence (P17931 whole entry): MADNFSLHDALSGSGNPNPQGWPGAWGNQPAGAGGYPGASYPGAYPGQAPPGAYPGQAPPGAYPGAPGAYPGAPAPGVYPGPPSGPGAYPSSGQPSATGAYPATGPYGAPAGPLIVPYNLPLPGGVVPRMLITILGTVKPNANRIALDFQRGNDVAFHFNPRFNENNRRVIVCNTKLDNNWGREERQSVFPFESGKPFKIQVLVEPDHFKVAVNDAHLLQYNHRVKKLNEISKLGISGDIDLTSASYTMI

Compound	Kd [µM]
CS[C@@H]1O[C@H](CO)[C@H](O)[C@H](O)[C@H]1OS(=O)(=O)O	2800
CS[C@@H]1O[C@H](CO)[C@H](O)[C@H](NC(=O)c2ccc(C)cc2)[C@H]1OP(=O)(O)OCc1ccccc1	120
CS[C@@H]1O[C@H](CO)[C@H](O)[C@H](NC(=O)c2ccc(C)cc2)[C@H]1OP(=O)(O)O	250
CS[C@@H]1O[C@H](CO)[C@H](O)[C@H](NC(=O)c2ccc(C)cc2)[C@H]1OC(=O)c1ccccc1	380
CS[C@@H]1O[C@H](CO)[C@H](O)[C@H](O)[C@H]1O	5900

Now from value to molecule:

Kd [µM]	Compound
150	CS[C@@H]1O[C@H](CO)[C@H](O)[C@H](NC(=O)c2ccc(C)cc2)[C@H]1O[PH](=O)O
87	CS[C@@H]1O[C@H](CO)[C@H](O)[C@H](NC(=O)c2ccc(C)cc2)[C@H]1OS(=O)(=O)O
220	CS[C@@H]1O[C@H](CO)[C@H](O)[C@H](NC(=O)c2ccc(C)cc2)[C@H]1O
240	CS[C@@H]1O[C@H](CO)[C@H](O)[C@H](NC(=O)c2ccc(C)cc2)[C@H]1OC(C)=O
